The text below walks through data of patent US9206128B2 (Constellation Pharmaceuticals, Inc., priority 2011, dated 2015).

For one assay, the target named is EZH2 (Homo sapiens, UniProt Q15910). The assay is described as follows: EZH2 activity inhibition assay (rPRC2, 3H SAM, biotinylated oligonucleosomes, FlashPlate). Type of assay: biochemical. The note with it: rPRC2, 2 nM EZH2, 0.2 μM 3H SAM, top concentration 80 μM.
A further assay addresses Y641N EZH2 (Homo sapiens, UniProt Q15910, Y641N). The assay is described as follows: Y641N EZH2 activity inhibition assay (as EZH2 assay, reconstituted H3K27Me2 oligonucleosomes as substrate). The class given is biochemical. Particulars: Y641N EZH2 mutant enzyme.

In general, IC50 refers to the concentration at which inhibition is half-maximal. A higher IC50 goes with a need for much substance.

Chain of EZH2 (Q15910 whole entry): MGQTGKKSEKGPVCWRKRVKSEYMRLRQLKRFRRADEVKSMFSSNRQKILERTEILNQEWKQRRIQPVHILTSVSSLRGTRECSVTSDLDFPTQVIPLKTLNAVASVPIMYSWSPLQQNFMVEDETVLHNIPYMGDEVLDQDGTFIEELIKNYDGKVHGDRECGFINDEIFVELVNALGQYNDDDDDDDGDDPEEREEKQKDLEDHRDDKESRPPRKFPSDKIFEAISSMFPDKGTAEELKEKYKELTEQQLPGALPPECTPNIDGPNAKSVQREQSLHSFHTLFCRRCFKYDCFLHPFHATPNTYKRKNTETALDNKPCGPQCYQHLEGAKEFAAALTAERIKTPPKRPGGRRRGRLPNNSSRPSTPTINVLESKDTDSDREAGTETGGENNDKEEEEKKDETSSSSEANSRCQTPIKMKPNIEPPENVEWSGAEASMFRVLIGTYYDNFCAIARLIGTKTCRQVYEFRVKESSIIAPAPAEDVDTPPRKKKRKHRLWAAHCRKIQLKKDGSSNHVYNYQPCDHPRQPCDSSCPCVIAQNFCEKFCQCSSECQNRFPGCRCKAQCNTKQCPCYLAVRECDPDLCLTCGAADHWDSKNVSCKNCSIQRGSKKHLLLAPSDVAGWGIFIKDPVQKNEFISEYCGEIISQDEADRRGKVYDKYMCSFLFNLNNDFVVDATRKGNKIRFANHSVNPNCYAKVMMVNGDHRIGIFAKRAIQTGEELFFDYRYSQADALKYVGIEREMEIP
Chain of EZH2 (O75530 whole entry partner): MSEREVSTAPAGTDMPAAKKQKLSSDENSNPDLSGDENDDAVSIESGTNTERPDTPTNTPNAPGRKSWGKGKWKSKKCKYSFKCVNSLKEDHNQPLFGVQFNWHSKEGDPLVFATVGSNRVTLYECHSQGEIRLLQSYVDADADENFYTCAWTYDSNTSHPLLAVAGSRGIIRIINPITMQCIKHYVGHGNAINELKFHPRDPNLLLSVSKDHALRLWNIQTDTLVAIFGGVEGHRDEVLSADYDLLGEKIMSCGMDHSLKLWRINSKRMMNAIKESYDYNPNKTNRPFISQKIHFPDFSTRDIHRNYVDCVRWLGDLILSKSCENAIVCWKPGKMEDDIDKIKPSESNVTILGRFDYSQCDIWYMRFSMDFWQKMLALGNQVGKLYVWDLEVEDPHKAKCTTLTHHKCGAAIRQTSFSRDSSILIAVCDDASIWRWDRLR
Chain of EZH2 (Q15022 whole entry partner): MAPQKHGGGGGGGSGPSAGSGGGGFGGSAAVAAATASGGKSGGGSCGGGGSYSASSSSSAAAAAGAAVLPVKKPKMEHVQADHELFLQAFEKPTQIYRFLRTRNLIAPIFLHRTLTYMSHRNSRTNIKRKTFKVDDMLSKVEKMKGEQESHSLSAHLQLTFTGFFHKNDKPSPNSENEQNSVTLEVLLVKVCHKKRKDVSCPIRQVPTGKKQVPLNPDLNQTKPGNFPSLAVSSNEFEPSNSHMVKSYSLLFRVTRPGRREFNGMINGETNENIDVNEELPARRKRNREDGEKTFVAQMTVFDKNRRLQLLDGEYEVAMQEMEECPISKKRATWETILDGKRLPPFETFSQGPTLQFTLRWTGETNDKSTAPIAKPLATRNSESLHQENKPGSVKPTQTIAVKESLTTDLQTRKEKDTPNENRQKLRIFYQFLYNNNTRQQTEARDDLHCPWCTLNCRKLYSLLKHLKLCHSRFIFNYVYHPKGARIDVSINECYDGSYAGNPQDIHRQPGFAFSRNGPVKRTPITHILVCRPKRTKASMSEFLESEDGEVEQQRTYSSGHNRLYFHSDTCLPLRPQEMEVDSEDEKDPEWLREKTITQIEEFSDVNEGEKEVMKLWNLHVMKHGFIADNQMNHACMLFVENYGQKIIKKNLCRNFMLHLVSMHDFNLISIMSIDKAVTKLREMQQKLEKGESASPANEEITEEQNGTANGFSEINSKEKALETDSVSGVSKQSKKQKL
Chain of Y641N EZH2 (Q15910 whole entry Y641N): as the sequence (Q15910 whole entry) above, with Y641N counted along it
Chain of Y641N EZH2 (O75530 whole entry partner): as the sequence (O75530 whole entry partner) above
Chain of Y641N EZH2 (Q15022 whole entry partner): as the sequence (Q15022 whole entry partner) above

For `Cc1cc(C)c(CNC(=O)c2ccc(C(C)OC3CCOC3)cc2)c(=O)[nH]1` (centres unmarked) [Compound I-184, N-((2-hydroxy-4,6-dimethylpyridin-3-yl)methyl)-4-(1-(tetrahydrofuran-3-yloxy)ethyl)benzamide], the half-maximal inhibitory concentration (IC50) was < 1000 nM at EZH2 and 1000 to 10000 nM against Y641N EZH2.
As to `Cc1cc(C)c(CNC(=O)c2ccc(C(C)OC3CCOCC3)cc2)c(=O)[nH]1` (centres unmarked) [Compound I-192], the half-inhibitory concentration (IC50) at EZH2 is < 1000 nM; on Y641N EZH2, 1000 to 10000 nM.
In the case of `COCC(Oc1ccccc1)c1ccc(C(=O)NCc2c(C)cc(C)[nH]c2=O)cc1` (centres unmarked) [Compound I-193], the concentration for half-maximal inhibition (IC50) on EZH2 and on Y641N EZH2 was > 80000 nM throughout.
With `CNc1cc(C)[nH]c(=O)c1CNC(=O)c1ccc(Oc2ccccc2)cc1` [Compound I-194, N-((2-hydroxy-6-methyl-4-(methylamino)pyridin-3-yl)methyl)-4-phenoxybenzamide], the IC50 against EZH2 is < 1000 nM; at Y641N EZH2, > 80000 nM.
The matching figures for `COc1cc(C)[nH]c(=O)c1CNC(=O)c1ccc(Oc2ccccc2)cc1` [Compound I-195, N-((2-hydroxy-4-methoxy-6-methylpyridin-3-yl)methyl)-4-phenoxybenzamide]: < 1000 nM and 1000 to 10000 nM.
The matching figures for `Cc1cc(N)c(CNC(=O)c2ccc(Oc3ccccc3)cc2)c(=O)[nH]1` [Compound I-196, N-((4-amino-2-hydroxy-6-methylpyridin-3-yl)methyl)-4-phenoxybenzamide]: 1000 to 10000 nM and > 80000 nM.
Taken in the same sequence, the figures for `Cc1cc(C)c(CNC(=O)c2c(C)cn(C(C)c3ccccc3)c(=O)c2C)c(=O)[nH]1` (centres unmarked) [Compound I-200, N-((4,6-dimethyl-2-oxo-1,2-dihydropyridin-3-yl)methyl)-3,5-dimethyl-2-oxo-1-(1-phenylethyl)-1,2-dihydropyridine-4-carboxamide] were < 1000 nM and 1000 to 10000 nM.
